Reference: US20260070913A1, “7-AMINO-3,4-DIHYDROPYRIMIDOPYRIMIDIN-2-ONE DERIVATIVE HAVING INHIBITORY ACTIVITY FOR PROTEIN KINASES AND THERAPEUTIC PHARMACEUTICAL COMPOSITION COMPRISING SAME” (KOREA INSTITUTE OF SCIENCE AND TECHNOLOGY, priority 2020, published 2026)

How the values were obtained:
ACK1 = ACK1 (Homo sapiens, UniProt Q07912); experiment: Inhibitory activity against ACK1 kinase; format: biochemical
Description: (§1) The inhibitory activities of the compounds of the present disclosure against two kinases, GCK and ACK1, were measured, and the IC50 values thereof were calculated.

GCK = target: T1, GCK (Homo sapiens, UniProt Q12851); experiment: Inhibitory activity against GCK kinase; format: biochemical
T1 sequence (Q12851 1-820): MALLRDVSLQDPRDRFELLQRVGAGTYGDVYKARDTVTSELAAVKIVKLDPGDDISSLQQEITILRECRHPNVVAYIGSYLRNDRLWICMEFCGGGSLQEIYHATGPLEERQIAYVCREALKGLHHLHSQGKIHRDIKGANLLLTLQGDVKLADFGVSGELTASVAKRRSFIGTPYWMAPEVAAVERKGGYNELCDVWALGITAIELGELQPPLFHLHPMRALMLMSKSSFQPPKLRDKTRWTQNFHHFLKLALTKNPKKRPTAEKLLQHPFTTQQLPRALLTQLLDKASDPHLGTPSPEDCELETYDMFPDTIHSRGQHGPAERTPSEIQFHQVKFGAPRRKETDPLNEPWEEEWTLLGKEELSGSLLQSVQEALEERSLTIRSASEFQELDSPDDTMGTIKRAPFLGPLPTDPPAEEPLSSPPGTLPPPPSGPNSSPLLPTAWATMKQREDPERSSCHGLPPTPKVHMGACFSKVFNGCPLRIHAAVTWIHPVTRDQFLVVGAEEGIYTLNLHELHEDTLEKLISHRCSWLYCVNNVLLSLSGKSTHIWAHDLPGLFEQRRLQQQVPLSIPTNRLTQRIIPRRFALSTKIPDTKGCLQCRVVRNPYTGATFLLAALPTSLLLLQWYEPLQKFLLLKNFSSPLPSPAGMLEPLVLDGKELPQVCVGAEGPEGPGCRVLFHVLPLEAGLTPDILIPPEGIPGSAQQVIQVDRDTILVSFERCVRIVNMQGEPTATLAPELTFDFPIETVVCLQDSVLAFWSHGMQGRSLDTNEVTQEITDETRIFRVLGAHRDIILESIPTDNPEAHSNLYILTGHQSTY
Description: as §1

Ba/F3 (N-Ras G12D) = experiment: Proliferation inhibitory activity, mt-NRAS (G12D) Ba/F3 cell line; format: cell-based; details: Mus musculus, BaF3
Description: (§2) The inhibitory activities of the compounds of the present disclosure against the proliferation of the mt-NRAS (G12D) Ba/F3 and OCI-AML3 (mt-NRAS) cell lines were measured, and the […] values thereof were calculated.

OCI-AML3 (N-Ras Q61L) = experiment: Proliferation inhibitory activity, OCI-AML3 cell line; format: cell-based; details: Homo sapiens, OCI-AML-3
Description: as §2
Referring to the results in Table 2, it can be seen that the compound of the present disclosure has inhibitory activity against the proliferation of the human acute myeloid leukemia cell line (OCI-AML3) having the NRAS mutant gene, and the effect thereof is remarkable. Therefore, it can be seen that the compound of the present disclosure is particularly effective as a therapeutic agent for acute myeloid leukemia (AML).

Sequence of ACK1 (Q07912 whole entry): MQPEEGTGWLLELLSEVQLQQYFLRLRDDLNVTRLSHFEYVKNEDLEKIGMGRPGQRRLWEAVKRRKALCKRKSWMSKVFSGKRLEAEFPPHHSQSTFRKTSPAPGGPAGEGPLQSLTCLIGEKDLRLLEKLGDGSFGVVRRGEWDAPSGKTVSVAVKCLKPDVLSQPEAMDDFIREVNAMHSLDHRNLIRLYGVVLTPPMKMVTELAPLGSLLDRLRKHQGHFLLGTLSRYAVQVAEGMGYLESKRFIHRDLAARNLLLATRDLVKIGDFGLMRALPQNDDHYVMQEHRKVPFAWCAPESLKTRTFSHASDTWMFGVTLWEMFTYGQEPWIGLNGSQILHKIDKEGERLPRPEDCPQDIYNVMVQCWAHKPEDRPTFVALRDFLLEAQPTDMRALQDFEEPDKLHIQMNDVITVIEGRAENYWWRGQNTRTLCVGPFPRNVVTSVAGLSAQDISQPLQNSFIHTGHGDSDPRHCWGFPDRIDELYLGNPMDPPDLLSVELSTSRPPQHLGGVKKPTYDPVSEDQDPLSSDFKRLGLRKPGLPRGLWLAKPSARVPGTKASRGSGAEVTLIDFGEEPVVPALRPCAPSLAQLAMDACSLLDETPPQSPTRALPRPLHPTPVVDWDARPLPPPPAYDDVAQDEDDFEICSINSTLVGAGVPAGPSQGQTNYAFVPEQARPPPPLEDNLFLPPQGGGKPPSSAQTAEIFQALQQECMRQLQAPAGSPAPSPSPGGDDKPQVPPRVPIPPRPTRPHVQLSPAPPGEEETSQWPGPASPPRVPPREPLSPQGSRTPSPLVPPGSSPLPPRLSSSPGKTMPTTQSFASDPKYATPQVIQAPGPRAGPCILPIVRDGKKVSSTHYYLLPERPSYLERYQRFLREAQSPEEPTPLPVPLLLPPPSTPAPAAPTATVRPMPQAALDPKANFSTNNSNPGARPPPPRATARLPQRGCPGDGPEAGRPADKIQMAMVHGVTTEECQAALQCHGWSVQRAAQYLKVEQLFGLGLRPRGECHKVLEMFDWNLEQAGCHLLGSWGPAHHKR

Q: For `Cc1ccc(Nc2ncc3c(n2)N(C)C(=O)N(c2cc(-c4ncc(-c5cccc(C(F)(F)F)c5)[nH]4)ccc2C)C3)cn1` [Compound No. 13, 1-methyl-3-(2-methyl-5-(5-(3-(trifluoromethyl)phenyl)-1H-imidazol-2-yl)phenyl)-7-((6-methylpyridin-3-yl)amino)-3,4-dihydropyrimido[4,5-d]pyrimidin-2(1H)-one], which IC50 (ACK1) is on record?
A: 1 to 10 µM

Q: And the IC50 (GCK)?
A: > 10 µM

Q: And the GI50 (Ba/F3 (N-Ras G12D))?
A: 3 to 5 µM

Q: What about the GI50 (OCI-AML3 (N-Ras Q61L)) of the same compound?
A: < 0.5 µM
